Laboratory results as given in patent publication US10253002B2, “Compounds and methods of treating infections” (Neoculi Pty Ltd., priority 2013, dated 2019).
Converted amounts (≈) assume the structure as drawn. “And” between values parts separate entries of the source, which are not always exact repeats. Identical values can stand only once. Like-named read-outs stand apart in the source and are kept apart here.

Tests used:
[1] = control strain Enterococcus faecalis ATCC 29212; cited from earlier work
[2] = system: S. aureus MK01 and KC01; experiment: MIC, Example 8; type: cell-based; conditions: Staphylococcus aureus, MK01ANDKC01, S. aureus KC01
From the text: Two Staphylococcus aureus isolates were used in the following experiments; S. aureus MK01 a human skin strain, and S. aureus KC01 an equine skin strain. These isolates were identified by Gram stain and biochemical methods, including the Remel Staphaurex commercial kit. […] As this isolate has previously been speciated, it was not subjected to further testing, except for observation of pure, characteristic growth on blood agar.

[3] = system: S. aureus clinical isolates (MRSA and MSSA); experiment: Minimum bactericidal concentration (MBC), Example 4; type: cell-based, Staphylococcus aureus; conditions: for MBC: Staphylococcus aureus
From the text: The MBC was defined as the lowest drug concentration at which 99.95% of the original inoculum was eliminated.

[4] = Release from Formulation B, Franz diffusion cells; type: physicochemical; conditions: absolute ethanol receptor, 32±1° C., up to 24 hours
Protocol: Franz diffusion cells were utilized to quantify the release rate of NCL 812 and NCL099 from its topical formulations. Five milliliters of absolute ethanol, which was chosen as the desired release medium, was loaded into the receptor chamber. Temperature of the receptor fluid was kept constant, at 32±1° C. using a water jacket. Acetyl cellulose membranes, with pore size of 0.45 μm (Pall Corporation) was selected and placed between donor and receptor chamber. Followed by that, a number of test samples (Formulation B) was loaded into the donor chamber. One milliliter of receptor fluid was collected at regular time intervals of 0.25, 0.50, 0.75, 1, 2, 3, 4, 5, 6, 7, 8 and 24 hours through the sampling port. One milliliter of fresh absolute ethanol was immediately returned to the receptor chamber. UV-HPLC was utilized to analyse the content of the receptor fluids attained.

[5] = system: E. faecalis USA01; experiment: Kill kinetics assay, Example 8; type: cell-based, Enterococcus faecalis
Protocol: S. aureus KC01 and E. faecalis USA01, not determined to be MRSA or VRE, respectively, were grown overnight on Columbia SBA at 37° C. A few colonies of bacteria were then suspended in CAMHB (cation-adjusted Mueller Hinton broth) and adjusted to OD600 of 0.08 to 0.10. The bacterial suspension was diluted 1:10. […] The tubes were incubated at 37° C., with constant shaking. In order to determine the number of viable bacteria present at various time points, a 100 μL aliquot was removed from each tube and diluted. Then, 100 μL of each dilution were spread onto colony count agar, in duplicate, and incubated for 48 h at 37° C. After 24 h the numbers of colonies present on each plate were counted and therefore the number of viable bacteria present in the original suspension enumerated. Plates were re-checked after 48 hours.

[6] = system: DNA synthesis in S. aureus ATCC 29213; experiment: Macromolecular synthesis assay: DNA synthesis ([3H] thymidine); type: cell-based, Staphylococcus aureus
Protocol: Cells were grown at 35° C. overnight on Trypticase Soy agar. A colony from the plate was used to inoculate 10 ml of Mueller Hinton broth II (MHBII), and the culture was grown to early exponential growth phase (OD600==0.2 to 0.3) while incubating in a shaker at 35° C. and 200 rpm.
When cells reached early exponential phase, 100 μL of culture was added to triplicate wells containing various concentrations of test compound or control antibiotics (5 μL) at 20× the final concentration in 100% DMSO. A 5% DMSO treated culture served as the “no drug” control for all experiments. Cells were added in MHBII at 105% to account for the volume of drug added to each reaction or in M9 minimal medium for protein synthesis reactions. Following 15 min incubation at room temperature, either [^3H] thymidine (DNA synthesis), [^3H] uridine (RNA synthesis) or [^3H] leucine (protein synthesis) was added at 0.5-1.0 μCi per reaction, depending on the experiment. Reactions were allowed to proceed at room temperature for 15-30 min and then stopped by adding 12 μL of cold 5% trichloroacetic acid (TCA) or 5% TCA/2% casamino acids (protein synthesis only). Reactions were incubated on ice for 30 min and the TCA precipitated material was collected on a 25 mm GF/A filter. After washing three times with 5 ml of cold 5% TCA, the filters were rinsed two times with 5 mL 100% ethanol, allowed to dry, and then counted using a Beckman LS3801 liquid scintillation counter.

[7] = system: S. pneumoniae strain D39; experiment: MBC time kill studies (relative MBC at time points); type: cell-based, Streptococcus pneumoniae; conditions: within 5 h
From the text: MBC kill kinetics assays involved the preparation of three 96 well microtitre trays.

[8] = system: VRE isolates; experiment: MBC (CLSI methodology), Example 7; type: cell-based, Enterococcus spp.; set-up: key: M = many bacteria growing on the plate (too many to count)

For `CC1(C)S[C@@H]2[C@H](NC(=O)[C@H](N)c3ccccc3)C(=O)N2[C@H]1C(=O)O` [Ampicillin], which “Acceptable MIC range for Ampicillin” value [1] is on record?
Its value is 0.5 to 2 µg/mL.

What does the source list for `N=C(N/N=C/c1ccc(Cl)cc1)N/N=C/c1ccc(Cl)cc1` [NCL812, 1,3-bis[(E)-(4-chlorophenyl)methyleneamino]guanidine]?
MIC [2]: 2 µg/mL (≈ 5.98 µM); S. aureus isolates with MBC equivalent to the MIC ([3]; 30 isolates): 93.33%; MBCrange ([3]; CA-MRSA (n = 10)): 2 to 4 µg/mL; MBCrange ([3]; HA-MRSA (n = 10)): 4 to 8 µg/mL; MBCrange ([3]; Methicillin-susceptible staphylococci (n = 10)): 2 to 8 µg/mL; MBC ([3]; CA-MRSA (n = 10), read-out: MBC50): 4 µg/mL (≈ 12 µM); MBC ([3]; CA-MRSA (n = 10), read-out: MBC90): 4 µg/mL (≈ 12 µM); MBC ([3]; HA-MRSA (n = 10), read-out: MBC50): 8 µg/mL (≈ 23.9 µM); MBC ([3]; HA-MRSA (n = 10), read-out: MBC90): 8 µg/mL (≈ 23.9 µM); MBC ([3]; Methicillin-susceptible staphylococci (n = 10), read-out: MBC50): 4 µg/mL (≈ 12 µM); MBC ([3]; Methicillin-susceptible staphylococci (n = 10), read-out: MBC90): 8 µg/mL (≈ 23.9 µM); MBC ([3]; Total bacterial isolates (n = 30), read-out: MBC50): 4 µg/mL (≈ 12 µM); MBC ([3]; Total bacterial isolates (n = 30), read-out: MBC90): 8 µg/mL (≈ 23.9 µM); MBCrange ([3]; Total bacterial isolates (n = 30)): 2 to 8 µg/mL; release profile from Formulation B [4]: acceptable release profile; rise in bacterial numbers ([5]; 32 and 64 μg/mL, until the 6 h time point): ~1 log10; reduction in CFU/mL compared to the growth control ([5]; 2 h): 2 log10; reduction in CFU/mL compared to the original bacterial numbers ([5]; 2 h): greater than 1 log10; bacterial numbers versus growth control ([5]; at 24 h, all concentrations): increased to almost the same level as the growth control; inhibition of DNA synthesis ([6]; 0.5 fold the MIC): 40%; inhibition of DNA synthesis ([6]; […] the MIC): no inhibition; inhibition of DNA synthesis ([6]; at the MIC): approximately 95%; decrease in MBC [7]: ~3 fold; NCL812 MBC: number of bacteria growing after 24 hours per ml of sample ([8]; VRE 12c, NCL812 2 μg/ml): 0 CFU/ml; NCL812 MBC: number of bacteria growing after 24 hours per ml of sample ([8]; VRE 12c, NCL812 16 μg/ml): M; NCL812 MBC: number of bacteria growing after 24 hours per ml of sample ([8]; VRE 12c, NCL812 32 μg/ml): M; NCL812 MBC: number of bacteria growing after 24 hours per ml of sample ([8]; VRE 12c, NCL812 64 μg/ml): M; NCL812 MBC: number of bacteria growing after 24 hours per ml of sample ([8]; VRE 12c, NCL812 […]): M; NCL812 MBC: number of bacteria growing after 24 hours per ml of sample ([8]; VRE 14t, NCL812 4 μg/ml): 0 CFU/ml; NCL812 MBC: number of bacteria growing after 24 hours per ml of sample ([8]; VRE 14t, NCL812 […]): M; NCL812 MBC: number of bacteria growing after 24 hours per ml of sample ([8]; VRE 16c(dc), NCL812 16 μg/ml): M; NCL812 MBC: number of bacteria growing after 24 hours per ml of sample ([8]; VRE 16c(dc), NCL812 32 μg/ml): M; NCL812 MBC: number of bacteria growing after 24 hours per ml of sample ([8]; VRE 16c(dc), NCL812 64 μg/ml): M; NCL812 MBC: number of bacteria growing after 24 hours per ml of sample ([8]; VRE 16c(dc), NCL812 […]): M; NCL812 MBC: number of bacteria growing after 24 hours per ml of sample ([8]; VRE 16c, NCL812 4 μg/ml): 820 CFU/ml and 790 CFU/ml; NCL812 MBC: number of bacteria growing after 24 hours per ml of sample ([8]; VRE 16c, NCL812 8 μg/ml): 980 CFU/ml and 890 CFU/ml; NCL812 MBC: number of bacteria growing after 24 hours per ml of sample ([8]; VRE 16c, NCL812 16 μg/ml): M; NCL812 MBC: number of bacteria growing after 24 hours per ml of sample ([8]; VRE 16c, NCL812 32 μg/ml): M; NCL812 MBC: number of bacteria growing after 24 hours per ml of sample ([8]; VRE 16c, NCL812 64 μg/ml): M; NCL812 MBC: number of bacteria growing after 24 hours per ml of sample ([8]; VRE 16c, NCL812 […]): M; NCL812 MBC: number of bacteria growing after 24 hours per ml of sample ([8]; VRE 19t, NCL812 4 μg/ml): 0 CFU/ml; NCL812 MBC: number of bacteria growing after 24 hours per ml of sample ([8]; VRE 19t, NCL812 8 μg/ml): 0 CFU/ml; NCL812 MBC: number of bacteria growing after 24 hours per ml of sample ([8]; VRE 19t, NCL812 […]): M; NCL812 MBC: number of bacteria growing after 24 hours per ml of sample ([8]; VRE 23c, NCL812 2 μg/ml): 0 CFU/ml; NCL812 MBC: number of bacteria growing after 24 hours per ml of sample ([8]; VRE 23c, NCL812 64 μg/ml): M; NCL812 MBC: number of bacteria growing after 24 hours per ml of sample ([8]; VRE 23c, NCL812 […]): M; NCL812 MBC: number of bacteria growing after 24 hours per ml of sample ([8]; VRE 25c, NCL812 8 μg/ml): M; NCL812 MBC: number of bacteria growing after 24 hours per ml of sample ([8]; VRE 25c, NCL812 16 μg/ml): M; NCL812 MBC: number of bacteria growing after 24 hours per ml of sample ([8]; VRE 25c, NCL812 32 μg/ml): M; NCL812 MBC: number of bacteria growing after 24 hours per ml of sample ([8]; VRE 25c, NCL812 64 μg/ml): M; NCL812 MBC: number of bacteria growing after 24 hours per ml of sample ([8]; VRE 25c, NCL812 […]): M; NCL812 MBC: number of bacteria growing after 24 hours per ml of sample ([8]; VRE 26c(dc), NCL812 8 μg/ml): 4000 CFU/ml and 3500 CFU/ml; NCL812 MBC: number of bacteria growing after 24 hours per ml of sample ([8]; VRE 26c(dc), NCL812 16 μg/ml): M; NCL812 MBC: number of bacteria growing after 24 hours per ml of sample ([8]; VRE 26c(dc), NCL812 32 μg/ml): M; NCL812 MBC: number of bacteria growing after 24 hours per ml of sample ([8]; VRE 26c(dc), NCL812 64 μg/ml): M; NCL812 MBC: number of bacteria growing after 24 hours per ml of sample ([8]; VRE 26c(dc), NCL812 […]): M; NCL812 MBC: number of bacteria growing after 24 hours per ml of sample ([8]; VRE 35t, NCL812 2 μg/ml): 0 CFU/ml; NCL812 MBC: number of bacteria growing after 24 hours per ml of sample ([8]; VRE 35t, NCL812 4 μg/ml): 0 CFU/ml; NCL812 MBC: number of bacteria growing after 24 hours per ml of sample ([8]; VRE 35t, NCL812 8 μg/ml): 0 CFU/ml; NCL812 MBC: number of bacteria growing after 24 hours per ml of sample ([8]; VRE 37c, NCL812 4 μg/ml): 100 CFU/ml and 50 CFU/ml; NCL812 MBC: number of bacteria growing after 24 hours per ml of sample ([8]; VRE 37c, NCL812 64 μg/ml): M; NCL812 MBC: number of bacteria growing after 24 hours per ml of sample ([8]; VRE 37c, NCL812 […]): M
